Columns and labels:
RD-ES cells = experiment: Cytotoxicity assay, MEDI-573 and mTOR inhibitors; format: cell-based; conditions: agents alone or in combination (FIG. 14)
pS6K = experiment: Immunoblot of cell lysates after MEDI-573, mTORi, combination; format: cell-based
Description: (§1) To examine the effect of MEDI-573, mTORi, and combination of both on IGF signaling, RD-ES, SJSA-1, and KHOS cells were treated with these agents for 4 hours. After separation of the cell lysates by gel electrophoresis, the proteins were detected by immunoblotting.

[1] = system: RD-ES (Ewing's sarcoma) xenografts; experiment: Xenograft efficacy study in mice; format: in vivo; conditions: RD-ES xenograft model
Source text: Although proliferation of SK-ES-1 and SJCRH30 cells was inhibited by MEDI-573 in vitro in the absence of exogenous IGFs, the in vivo growth of these two models was not effected by MEDI-573 treatment.
The combination treatments were tolerated as no significant body weight loss was observed (FIG. 17B).
For in vivo efficacy studies, five million sarcoma cells in 50% matrigel were inoculated subcutaneously into each female athymic nude mice. When tumors reach approximately 150-200 mm^3, mice were randomly assigned into groups (10 mice per group). MEDI-573 was administrated intraperitoneally twice per week at indicated doses. The dose regimen for AZD2014 was oral once every day, for rapamycin was intraperitoneal injection every 3 days. Tumor volumes were measured twice weekly with calipers. Tumor growth inhibition was calculated on the last day of study relative to the initial and final mean tumor volume of the control group.

pAKT = experiment: Immunoblot of cell lysates after MEDI-573, mTORi, combination; format: cell-based; conditions: all 3 cell lines, 4 hours
Description: as §1

p4EBP1 = experiment: as above; format: cell-based; conditions: single agent, 4 hours
Description: as §1

Structure (SMILES) | decrease in cell viability (RD-ES cells) | phosphorylation of pS6K (pS6K; RD-ES cells) | phosphorylation of pS6K (pS6K; SJSA-1 or KHOS cells) | tumor growth inhibition ([1]; AZD2014 combination study (FIG. 16A)) | pS6K (pS6K; all 3 cell lines (RD-ES, SJSA-1, KHOS), 4 hours) | phosphorylation of AKT (pAKT) | phosphorylation of 4EBP1 (p4EBP1) | tumor growth inhibition ([1]; rapamycin combination study (FIG. 17A))
CNC(=O)c1cccc(-c2ccc3c(N4CCOC[C@@H]4C)nc(N4CCOC[C@@H]4C)nc3n2)c1 [AZD2014] | 55% | inhibited phosphorylation of pS6K | did not inhibit phosphorylation of pS6K | 51% | – | – | – | –
CO[C@H]1C[C@@H]2CC[C@@H](C)[C@@](O)(O2)C(=O)C(=O)N2CCCC[C@H]2C(=O)O[C@H]([C@H](C)C[C@@H]2CC[C@@H](O)[C@H](OC)C2)CC(=O)[C@H](C)/C=C(\C)[C@@H](O)[C@@H](OC)C(=O)[C@H](C)C[C@H](C)/C=C/C=C/C=C/1C [rapamycin] | 34% | – | – | – | completely inhibited pS6K | induced phosphorylation of AKT | did not have effect | 44%
